Test results: patent US10750742B2, “Pesticidally active pyrazole derivatives” (SYNGENTA PARTICIPATIONS AG, priority 2015, dated 2020)
Read-outs that look alike come from different tables or passages of the source.

Tests used:
Format in all cases: in vivo
[1] = test system: Spodoptera littoralis; experiment: Spodoptera littoralis (Egyptian cotton leaf worm), cotton leaf disc spray test; details: foliar, 72 h, read-out: control (at least one of mortality, anti-feedant effect, growth inhibition); for percent control (mortality, anti-feedant effect or growth inhibition) at 200 ppm: application rate 200 ppm, L1 larvae, 3 days after infestation
Method: Spodoptera littoralis (Egyptian Cotton Leaf Worm)
Cotton leaf discs were placed on agar in 24-well microtiter plates and sprayed with aqueous test solutions prepared from 10′000 ppm DMSO stock solutions. After drying the leaf discs were infested with five L1 larvae. The samples were assessed for mortality, anti-feedant effect, and growth inhibition in comparison to untreated samples 3 days after infestation. Control of Spodoptera littoralis by a test sample is when at least one of mortality, anti-feedant effect, and growth inhibition is higher than the untreated sample.

[2] = test system: Plutella xylostella; experiment: Plutella xylostella (diamond back moth), artificial diet test; details: 120 h, read-out: control (mortality and growth inhibition)
Method: Plutella xylostella (Diamond Back Moth):
(§1) 24-well microtiter plates with artificial diet were treated with aqueous test solutions prepared from 10′000 ppm DMSO stock solutions by pipetting. After drying, the plates were infested with L2 larvae (10 to 15 per well). The samples were assessed for mortality and growth inhibition in comparison to untreated samples 5 days after infestation.

[3] = test system: Diabrotica balteata; experiment: Diabrotica balteata (corn root worm), maize sprout test; details: 96 h, read-out: control (mortality and growth inhibition)
Method: Diabrotica balteata, (Corn Root Worm)
as §1, with “Maize sprouts, placed on an agar layer in 24-well” for “24-well”, “plates” for “plates with artificial diet”, “spraying.” for “pipetting.”, “(6” for “(10”, “10” for “15”, “4” for “5”

[4] = test system: Thrips tabaci; experiment: Thrips tabaci (onion thrips), sunflower leaf disc test; details: foliar, 144 h, read-out: control (mortality)
Method: Thrips tabaci (Onion Thrips):
(§2) Sunflower leaf discs were placed on agar in 24-well microtiter plates and sprayed with aqueous test solutions prepared from 10′000 ppm DMSO stock solutions. After drying the leaf discs were infested with a thrips population of mixed ages. The samples were assessed for mortality 6 days after infestation.

[5] = test system: Tetranychus urticae; experiment: Tetranychus urticae (two-spotted spider mite), bean leaf disc test; details: foliar, 192 h, read-out: control (mortality on mixed population, mobile stages)
Method: Tetranychus urticae (Two-Spotted Spider Mite):
as §2, with “Bean” for “Sunflower”, “discs” for “discs were placed”, “were” for “and”, “mite” for “thrips”, “on mixed population (mobile stages) 8” for “6”

[6] = test system: Euschistus heros; experiment: Euschistus heros (neotropical brown stink bug), soybean leaf test; details: 120 h, read-out: effect in at least one of the two categories (mortality or growth inhibition); for percent effect (mortality or growth inhibition) at 200 ppm: application rate 200 ppm, N2 nymphs, 5 days after infestation
Method: Euschistus heros (Neotropical Brown Stink Bug):
Soybean leaves on agar in 24-well microtiter plates were sprayed with aqueous test solutions prepared from 10′000 ppm DMSO stock solutions. After drying the leaves were infested with N2 nymphs. The samples were assessed for mortality and growth inhibition in comparison to untreated samples 5 days after infestation.

[7] = test system: Myzus persicae; experiment: Myzus persicae (green peach aphid), sunflower leaf disc spray test; details: foliar, 144 h
Method: (§3) Myzus persicae (Green Peach Aphid):
Sunflower leaf discs were placed on agar in a 24-well microtiter plate and sprayed with test solutions at an application rate of 200 ppm. After drying, the leaf discs were infested with an aphid population of mixed ages. After an incubation period of 6 DAT, samples were checked for mortality. The following compounds gave at least 80% mortality of Myzus persicae: compounds 1,2, 3, 4, 5, 6, 11, 12, 15, 17, 18, 19, 20, 23, 24, 25, 26, 27, 30, 32, 33, 34 35, 41, 43, 44, 47, 50, 55, 58, 59, 60, 61, 62, 63, 64, 65 and 66.

[8] = test system: Myzus persicae; experiment: Myzus persicae (green peach aphid), sucrose solution / Parafilm test; details: 120 h
Text: as §3
Test compounds were applied by pipette into 24 well plates and mixed with Sucrose solution. Application rate: 12.5 ppm. The plates were closed with a stretched parafilm. A plastic stencil with 24 holes is placed onto the plate and infested pea seedlings were placed directly on the Parafilm. The infested plate is closed with a gel blotting paper and another plastic stencil and then turned upside down. 5 days after infestation the samples were checked on mortality.

[9] = application rate 200 ppm, L2 larvae, 5 days after infestation
[10] = application rate 200 ppm, L2 larvae, 4 days after infestation
[11] = application rate 200 ppm, mixed ages, 6 days after infestation
[12] = application rate 200 ppm, 8 days after infestation
[13] = application rate 200 ppm, mixed ages, 6 DAT, read-out: mortality
[14] = test rate of 12 ppm, sucrose solution, 5 days after infestation, read-out: mortality

Cn1nc(OCC(F)(F)C(F)F)c(C(F)(F)F)c1-n1cc(-c2ccc(Cl)c(C(=O)NC3CC3)c2)cn1 [compound 33]
≥ 80%: percent control (mortality, anti-feedant effect or growth inhibition) at 200 ppm [1] | mortality at 200 ppm [2, 9] | mortality at 200 ppm [3, 10] | mortality at 200 ppm [4, 11] | mortality at 200 ppm [5, 12] | percent effect (mortality or growth inhibition) at 200 ppm [6] | mortality at 200 ppm [7, 13] | mortality at 12 ppm [8, 14]

Cn1nc(OCC(F)(F)C(F)(F)C(F)(F)F)c(C(F)(F)F)c1-n1cc(-c2ccc(Cl)c(C(=O)NC3CC3)c2)cn1 [compound 26]
≥ 80%: mortality at 200 ppm [1] | mortality at 200 ppm [2] | mortality at 200 ppm [3] | mortality at 200 ppm [4] | mortality at 200 ppm [5] | percent control (mortality or growth inhibition) at 200 ppm [6] | mortality at 200 ppm [7] | mortality at 12 ppm [8]

Cn1nc(OCC(F)F)c(C(F)(F)F)c1-n1cc(-c2ccc(Cl)c(C(=O)NC3CC3)c2)cn1 [compound 24]
≥ 80%: percent control (mortality, anti-feedant effect or growth inhibition) at 200 ppm [1] | mortality at 200 ppm [2, 9] | mortality at 200 ppm [3, 10] | mortality at 200 ppm [5, 12] | percent effect (mortality or growth inhibition) at 200 ppm [6] | mortality at 200 ppm [7, 13] | mortality at 12 ppm [8, 14]

Cn1nc(OC(F)(F)C(F)C(F)(F)F)c(C(F)(F)F)c1-n1cc(-c2cnc(Cl)c(C(=O)NC3CC3)c2)cn1 (centres unmarked) [compound 66]
≥ 80%: mortality at 200 ppm [2, 9] | mortality at 200 ppm [4, 11] | mortality at 200 ppm [5, 12] | percent effect (mortality or growth inhibition) at 200 ppm [6] | mortality at 200 ppm [7, 13]

Cn1nc(OC(F)(F)C(F)Br)c(C(F)(F)F)c1-n1cc(-c2ccc(Cl)c(C(=O)NC3CC3)c2)cn1 (centres unmarked) [compound 43]
≥ 80%: percent control (mortality, anti-feedant effect or growth inhibition) at 200 ppm [1] | mortality at 200 ppm [2, 9] | mortality at 200 ppm [3, 10] | mortality at 200 ppm [4, 11] | mortality at 200 ppm [5, 12] | percent effect (mortality or growth inhibition) at 200 ppm [6] | mortality at 200 ppm [7, 13]

Cn1nc(OCC(F)(F)OC(F)(F)C(F)(F)OC(F)(F)F)c(C(F)(F)F)c1-n1cc(-c2ccc(Cl)c(C(=O)NC3(C#N)CC3)c2)cn1 [compound 18]
≥ 80%: percent control (mortality, anti-feedant effect or growth inhibition) at 200 ppm [1] | mortality at 200 ppm [2, 9] | mortality at 200 ppm [3, 10] | mortality at 200 ppm [4, 11] | mortality at 200 ppm [5, 12] | percent effect (mortality or growth inhibition) at 200 ppm [6] | mortality at 200 ppm [7, 13] | mortality at 12 ppm [8, 14]

Cn1nc(SC(F)(F)C(F)(F)C(F)(F)F)c(Br)c1-n1cc(-c2ccc(Cl)c(C(=O)NC3CC3)c2)cn1 [compound 64]
≥ 80%: mortality at 200 ppm [1] | mortality at 200 ppm [2] | mortality at 200 ppm [3] | mortality at 200 ppm [4] | mortality at 200 ppm [5] | percent control (mortality or growth inhibition) at 200 ppm [6] | mortality at 200 ppm [7]

Cn1nc(OC(F)(F)C(F)OC(F)(F)F)c(C(F)(F)F)c1-n1cc(-c2cnc(Cl)c(C(=O)NC3(C#N)CC3)c2)cn1 (centres unmarked) [compound 61]
≥ 80%: percent control (mortality, anti-feedant effect or growth inhibition) at 200 ppm [1] | mortality at 200 ppm [2, 9] | mortality at 200 ppm [3, 10] | mortality at 200 ppm [4, 11] | mortality at 200 ppm [5, 12] | percent effect (mortality or growth inhibition) at 200 ppm [6] | mortality at 200 ppm [7, 13]

Cn1nc(OCCOC(F)(F)F)c(C(F)(F)F)c1-n1cc(-c2ccc(Cl)c(C(=O)NC3CC3)c2)cn1 [compound 34]
≥ 80%: percent control (mortality, anti-feedant effect or growth inhibition) at 200 ppm [1] | mortality at 200 ppm [2, 9] | mortality at 200 ppm [3, 10] | mortality at 200 ppm [5, 12] | percent effect (mortality or growth inhibition) at 200 ppm [6] | mortality at 200 ppm [7, 13] | mortality at 12 ppm [8, 14]

Cn1nc(OC(F)F)c(C(F)(F)F)c1-n1cc(-c2ccc(Cl)c(C(=O)NC3(C#N)CC3)c2)cn1 [compound 1]
≥ 80%: percent control (mortality, anti-feedant effect or growth inhibition) at 200 ppm [1] | mortality at 200 ppm [2, 9] | mortality at 200 ppm [3, 10] | percent effect (mortality or growth inhibition) at 200 ppm [6] | mortality at 200 ppm [7, 13] | mortality at 12 ppm [8, 14]

Cn1nc(SC(F)(F)F)c(Br)c1-n1cc(-c2ccc(Cl)c(C(=O)NC3CC3)c2)cn1 [compound 63]
≥ 80%: percent control (mortality, anti-feedant effect or growth inhibition) at 200 ppm [1] | mortality at 200 ppm [2, 9] | mortality at 200 ppm [3, 10] | mortality at 200 ppm [4, 11] | mortality at 200 ppm [5, 12] | percent effect (mortality or growth inhibition) at 200 ppm [6] | mortality at 200 ppm [7, 13]

Cn1nc(OC(F)(F)C(F)OC(F)(F)F)c(C(F)(F)F)c1-n1cc(-c2cnc(Cl)c(C(=O)NC3CC3)c2)cn1 (centres unmarked) [compound 62]
≥ 80%: percent control (mortality, anti-feedant effect or growth inhibition) at 200 ppm [1] | mortality at 200 ppm [2, 9] | mortality at 200 ppm [3, 10] | mortality at 200 ppm [4, 11] | mortality at 200 ppm [5, 12] | percent effect (mortality or growth inhibition) at 200 ppm [6] | mortality at 200 ppm [7, 13]

Cc1ccc(-c2cnn(-c3c(C(F)(F)F)c(OC(F)(F)C(F)C(F)(F)F)nn3C)c2)cc1C(=O)NC1CC1 (centres unmarked) [compound 58]
≥ 80%: percent control (mortality, anti-feedant effect or growth inhibition) at 200 ppm [1] | mortality at 200 ppm [2, 9] | mortality at 200 ppm [3, 10] | mortality at 200 ppm [4, 11] | mortality at 200 ppm [5, 12] | mortality at 200 ppm [7, 13] | mortality at 12 ppm [8, 14]

Cn1nc(OC(F)(F)CBr)c(C(F)(F)F)c1-n1cc(-c2ccc(Cl)c(C(=O)NC3(C#N)CC3)c2)cn1 [compound 41]
≥ 80%: percent control (mortality, anti-feedant effect or growth inhibition) at 200 ppm [1] | mortality at 200 ppm [2, 9] | mortality at 200 ppm [3, 10] | mortality at 200 ppm [4, 11] | mortality at 200 ppm [5, 12] | percent effect (mortality or growth inhibition) at 200 ppm [6] | mortality at 200 ppm [7, 13]

COc1nn(C)c(-n2cc(-c3ccc(Cl)c(C(=O)NC4(C#N)CC4)c3)cn2)c1C(F)(F)F [compound 5]
≥ 80%: mortality at 200 ppm [7, 13] | mortality at 12 ppm [8, 14]

Cn1nc(OC(F)(F)C(F)(C(F)=C(F)C(F)(F)F)C(F)(F)F)c(C(F)(F)F)c1-n1cc(-c2ccc(Cl)c(C(=O)NC3CC3)c2)cn1 (centres unmarked) [compound 51]
≥ 80%: percent control (mortality, anti-feedant effect or growth inhibition) at 200 ppm [1] | mortality at 200 ppm [2, 9] | mortality at 200 ppm [3, 10] | mortality at 200 ppm [4, 11] | mortality at 200 ppm [5, 12] | percent effect (mortality or growth inhibition) at 200 ppm [6] | mortality at 12 ppm [8, 14]

Cn1nc(OC(F)(F)C(F)C(F)(F)F)c(C(F)(F)F)c1-n1cc(-c2cnc(Cl)c(C(=O)NC3(C#N)CC3)c2)cn1 (centres unmarked) [compound 65]
≥ 80%: mortality at 200 ppm [2, 9] | mortality at 200 ppm [3, 10] | mortality at 200 ppm [4, 11] | mortality at 200 ppm [5, 12] | percent effect (mortality or growth inhibition) at 200 ppm [6] | mortality at 200 ppm [7, 13]

Cn1nc(OC(F)(F)C(F)Cl)c(C(F)(F)F)c1-n1cc(-c2ccc(Cl)c(C(=O)NC3(C#N)CC3)c2)cn1 (centres unmarked) [compound 44]
≥ 80%: mortality at 200 ppm [3, 10] | mortality at 200 ppm [4, 11] | mortality at 200 ppm [5, 12] | percent effect (mortality or growth inhibition) at 200 ppm [6] | mortality at 200 ppm [7, 13] | mortality at 12 ppm [8, 14]
